Assay results taken from US7693320B2, “Three time point lung cancer detection, diagnosis and assessment of prognosis” (Yeda Research and Development Co. Ltd., priority 2004, dated 2010).

Key:
[1] = cited from earlier work
[2] = parameters: species or system patients; conditions: human, in vivo, iv
Excerpt: For example, in a CT application, HU units (Hounsfield Units) measuring signal intensity S(t) are converted to Ultravist 300 concentration units (ml ultravist 300 solution/liter saline). The relationship between the measured signal intensity S(t) in HU and the concentration C(t) of contrast material (in ml per l) is described by: S(t)=p+qC(t) (1) where p and q are parameters to be determined.
Enhancement, E(t), is defined as the difference in signal intensities before and after contrast material injection: E(t)=S(t)−S(t0)=q[C(t)−C(t0)] (2)
The experimental factor that converts HU units to contrast material concentration units can be determined by preparing tubes with different concentrations of Ultravist 300 in normal saline. The tubes can then be scanned by the CT.
For example, for prepared concentrations, C (in ml Ultravist 300 per 1 saline), may be in the range of 0 to 2% (20 ml per l) which is approximately the concentration in the blood after the injection. […] (The dose of 1.5 ml/kg in a 70 kg patient corresponds to ˜20 ml/l, about 2% in blood.)
The contrast agent for the CT was Iopromide (Ultravist 300; Schering) at a dose of 1.5 ml/kg, delivered through the antecubital vein at a rate of 3 ml/sec using an automatic injector (EnVision CT™). The patients were instructed to hold their breath following maximal expiration during the scanning, to decrease movement.
For each patient, the inventors recorded the signal intensity, S, of a central ROI in the aorta before contrast administration and at a selected time point after contrast injection. The inventors in the research study used the relation between HU and concentration units of Ultravist 300 (see above) to convert the measured enhancement to the corresponding concentration in the aorta, Cp(t), assuming similar pharmacokinetics for all patients with normal kidney function. Cp(t) in ml contrast agent per liter blood was fitted to the equation: Cp(t)=D(a1e^−m1^t+a2e^−m2^t) D=dose in ml/kg […] Eq. 3. to obtain: a1=8.48 kg/l, a2=7.34 kg/l, m1=1.43 min^−1, m2=0.1 min^−1.
FIG. 2 illustrates enhancement (as defined in Eq. 2) in the aorta as a function of time after Iopromide (ultravist 300) injection at a dose of 0.15 ml/kg. The decay in the enhancement followed eq. 3 using the concentration to enhancement conversion (equation 2).

## COCC(=O)Nc1c(I)c(C(=O)NCC(O)CO)c(I)c(C(=O)N(C)CC(O)CO)c1I (stereo not shown) [Iopromide]
[1]; following IV administration
  fraction of the dosage excreted in feces: 1.5%
  half-life of distribution in the extracellular space: 3 min
[1]; patients of normal kidney function, irrespective of the dose
  elimination half-life: ~2 h
[2]
  a1 (amplitude of Cp(t)=D(a1e^-m1t+a2e^-m2t)): 8.48 kg/L
  a2 (amplitude of Cp(t)=D(a1e^-m1t+a2e^-m2t)): 7.34 kg/L
  m1 (decay rate constant of Cp(t)): 1.43 min⁻¹
  m2 (decay rate constant of Cp(t)): 0.1 min⁻¹
